Results published in patent US20240173325A1, “METHODS FOR TREATING SPINAL MUSCULAR ATROPHY” (Genentech, Inc., priority 2022, published 2024).

Test system: neonatal subject
Experiment: Clinical assessments of the neonatal subject (physical/neurologic exam, CHOP INTEND, HINE-2, Bayley-4, OrSAT, ultrasound)
Format: in vivo, human
Conditions: for CHOP INTEND: highest possible score 64; for Oral-motor assessment (OrSAT): maximum score 7
Procedure: Following birth, the neonatal subject, approximately one week and again at approximately six weeks of age, was assessed using the Hammersmith Infant Neurological Exam (HINE), Bayley Scales of Infant and Toddler Development, 4th edition (“Bayley™-4), the Children's Hospital of” Philadelphia Infant Test of Neuromuscular Disorders (CHOP INTEND), the Oral and Swallowing Abilities Tool (OrSAT), respiratory inductance plethysmography (RIP), a complete physical examination, anthropometric measurements (including vital signs, length, weight, head circumference and chest circumference), nerve conduction testing (specifically compound muscle action potential (CMAP) and motor unit number estimation (MUNE)), an ultrasound of the brain and muscles, blood and urine collection for CBC, CMP, U/A, and risdiplam PK/PD. The CBC, CMP, and U/A could be repeated at six weeks if the neonatal subject had not initiated any SMN-directed therapies, if there was a clinical indication upon physical examination, or if the one-week labs had clinically significant abnormal results.
The maximum score for the HINE-2 is 26 points, with a higher score reflecting a higher function, respectively.
Bayley™-4 is a comprehensive assessment tool for determining developmental delays in high-risk neonatal subjects. See Bayley & Aylward (2019) Bayley Scales of Infant and Toddler Development (4th ed.) technical manual. Bloomington, MN: NCS Pearson. Bayley™-4 scores from an assessment of early childhood development. Specifically, Bayley™-4 tests developmental skills such as cognitive, language, and motor skills of the neonatal subject. The scores represent how well the neonatal subject performed in these areas as compared to a group of neonatal subjects in the same age range. The Bayley™-4 mean standard score is 100 and the standard deviation is 15.
In Table 6, “CHOP INTEND” refers to a test that provides information about how strong the neonatal subject's muscles are and how well the neonatal subject can control his/her muscles. During the CHOP INTEND examination, a health care provider measures 16 types of muscle movements, which include head control (keeping the head upright), elbow flexion and knee extension (bending the joints), arm and leg mobility, and handgrip. […] All of the CHOP INTEND scores add up to one total score, with the highest possible score for the CHOP INTEND test being 64. With a score of 50 at 6 weeks and a score of 55 at 18 weeks, the neonatal subject was considered to be normal.
“OrSAT” or “Oral and Swallowing Abilities Tool” is a tool specifically designed to record structured information on different aspects related to oral, swallowing and feeding abilities in patients with type 1 SMA. See Berti (2022) Arch. Dis. Child. archdischild-2022-323899. Specifically, OrSAT includes several questions, where the responses are graded using a scoring system: each item is scored as 0 or 1 depending if the patient is able or unable to perform a given activity. Since some items are age-dependent, the number of items and the maximal score increases with an increasing age. If the neonatal subject younger than 6 months of age who cannot be assessed on swallowing semisolids or solids, the maximum score is 7, whereas if the neonatal subject is between 6 and 9 months of age, who can be assessed on this criteria, the maximum score is 10. If the neonatal subject is 10 months of age or older and can be assessed for all food consistencies, including solids, the maximum total score is 12. See Berti (2021) J. Neuromuscul. Dis. 8(4):589-601.
Muscle ultrasound was performed using a 11-mHz-linear array transducer (60 mm width) in B-mode (GE Vivid E95; GE, Chicago, IL, USA) to evaluate for muscle fasciculation in the right and left biceps, the abductor digiti minimi muscle, the quadriceps, the transverse abdominal muscle, the gastrocnemius-soleus, the lumbar paraspinals and the tongue. Thickness of the quadriceps muscle was measured. […]

SMILES: Cc1cn2nc(-c3cc(=O)n4cc(N5CCNC6(CC6)C5)ccc4n3)cc(C)c2n1 [risdiplam, 7-(4,7-diazaspiro[2.5]octan-7-yl)-2-(2,8-dimethylimidazo[1,2-b]pyridazin-6-yl)-4H-pyrido[1,2-a]pyrimidin-4-one]
- Ultrasound studies Neurosonogram Muscle (1 week): normal
- General Physical Exam (1 week to 18 weeks): Heart murmur (VSD)
- Neurologic Exam (1 week to 18 weeks): Normal, age-appropriate tone, posture,
- CHOP INTEND (1 week): 46
- Oral-motor assessment (OrSAT) (1 week): 7
- Mental status (2 weeks to 2 months): Somnolent and fussy
- Ultrasound studies Neurosonogram Muscle (6 weeks): normal
- CHOP INTEND (6 weeks): 50
- Oral-motor assessment (OrSAT) (6 weeks): 7
- Bayley-4 Adaptive Behavior (18 weeks): Behavior: 89
- Bayley-4 Cognitive (18 weeks): Cognitive: 95
- Bayley-4 Communication (18 weeks): Communication: 103
- Bayley-4 Social (18 weeks): Social: 95
- Ultrasound studies Neurosonogram Muscle (18 weeks): normal
- Oral-motor assessment (OrSAT) (18 weeks): 7
- HINE-2 (18 weeks, maximum score 26): 8
- Bayley-4 Motor (18 weeks, mean standard score 100, SD 15): Motor: 101
- APGAR score (1 minute): APGAR scores: 7
- APGAR score (5 minutes): minute), 8 (5 minutes)
- Growth (weight gain) (after 2 months): Normal after
- Mental status (after 2 months): Normal after
- General Physical Exam (birth to 1 week): Respiratory distress
- Mental status (birth to 1 week): Normal
- Neurologic Exam (birth to 1 week): Normal, age- appropriate
- Ultrasound studies Neurosonogram Muscle (birth to 1 week (DOL2)): normal DOL2
